Results as given in patent US20210144998A1 (priority 2019, published 2021).
Structures can show the parent of a compound that is named as a salt. Where two headings read alike, the source gives them in different places.

How the values were obtained:
[1] = system: RpoH
[2] = system: LdtR
[3] = system: VisNR; settings: Microsource

For `NC(=O)c1ncn([C@@H]2O[C@H](CO)[C@@H](O)[C@H]2O)n1` [Ribavirin], the “activity annotation RpoH” value ([1]; Biomol FDA) was “Ribavirin (2; inactive RpoH Biomol FDA)”.

With `CN1CCN(c2c(F)cc3c(=O)c(C(=O)O)cn4c3c2SCC4)CC1` [RUFLOXACIN HCl] the “activity annotation RpoH” value ([1]; NIHCC) was “RUFLOXACIN HCl (2; inactive LdtR & RpoH NIHCC)” and the “activity annotation LdtR” value ([2]; NIHCC) was “RUFLOXACIN HCl (2; inactive LdtR & RpoH NIHCC)”.

In the case of `O=C(O)CN(CCN(CC(=O)O)CC(=O)O)CCN(CC(=O)O)CC(=O)O` [Diethylenetriaminepentaacetic acid], the “activity annotation, target not given” value (LOPAC) was “Diethylenetriaminepentaacetic acid (1; inactive LOPAC)”.

With `CC[C@H]1OC(=O)[C@H](C)[C@@H](O[C@H]2C[C@@](C)(OC)[C@@H](O)[C@H](C)O2)[C@H](C)[C@@H](O[C@@H]2O[C@H](C)C[C@H](N(C)C)[C@H]2O)[C@](C)(OC)C[C@@H](C)C(=O)[C@H](C)[C@@H](O)[C@]1(C)O` [CLARITHROMYCIN] the “activity annotation RpoH” value ([1]; NIHCC) was “CLARITHROMYCIN (2; inactive LdtR & RpoH NIHCC)” and the “activity annotation LdtR” value ([2]; NIHCC) was “CLARITHROMYCIN (2; inactive LdtR & RpoH NIHCC)”.

In the case of `CC(=O)NC[C@H]1CN(c2ccc(N3CCOCC3)c(F)c2)C(=O)O1` [LINEZOLIDE], the “activity annotation, target not given” value (NIHCC) was “LINEZOLIDE (1; inactive NIHCC)”.

With `CCn1cc(C(=O)O)c(=O)c2cc(F)c(N3CCN(C)CC3)cc21.CS(=O)(=O)O` [PEFLOXACIN MESYLATE] the “activity annotation, target not given” value (NIHCC) was “PEFLOXACIN MESYLATE (2; inactive NIHCC)”.

In the case of `CCn1cc(C(=O)O)c(=O)c2cc(F)c(N3CCNC(C)C3)c(F)c21.Cl` (stereo not shown) [Lomefloxacin hydrochloride], the “activity annotation VisNR” value [3] was “Lomefloxacin hydrochloride (2; inactive LOPAC & VisNR Microsource)”.

For `O=c1[nH]cc(F)c(=O)[nH]1` [5-Fluorouracil], the “activity annotation LdtR” value ([2]; LOPAC) was 5-Fluorouracil (2; inactive LdtR LOPAC).
